Calls of active or inactive are those of the source.
Tests used:
[1] = molecular target: T1, Scavenger receptor class B member 1 (Mus musculus, UniProt Q61009); assay: mouse SR-BI DiI-HDL uptake blockers – ldlA[mSR-BI] cells, fluorescence, cherry pick, dose response (AID 493194); type: functional, cell-based;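 also: cellular uptake of fluorescent DiI-labeled HDL measured as cell fluorescence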
T1 sequence (Q61009 whole entry): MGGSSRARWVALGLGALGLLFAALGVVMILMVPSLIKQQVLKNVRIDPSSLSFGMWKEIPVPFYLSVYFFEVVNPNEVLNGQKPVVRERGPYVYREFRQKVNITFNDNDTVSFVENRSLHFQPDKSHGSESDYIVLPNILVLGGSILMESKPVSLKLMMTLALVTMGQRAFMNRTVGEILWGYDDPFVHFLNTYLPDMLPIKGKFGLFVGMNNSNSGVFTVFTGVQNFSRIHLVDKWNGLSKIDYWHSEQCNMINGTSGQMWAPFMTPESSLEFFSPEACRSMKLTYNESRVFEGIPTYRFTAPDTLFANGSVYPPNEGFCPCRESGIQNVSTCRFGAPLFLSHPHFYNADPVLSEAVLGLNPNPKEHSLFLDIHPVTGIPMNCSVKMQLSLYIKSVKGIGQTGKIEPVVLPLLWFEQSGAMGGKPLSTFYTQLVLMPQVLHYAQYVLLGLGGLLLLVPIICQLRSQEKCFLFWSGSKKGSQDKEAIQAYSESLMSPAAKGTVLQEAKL

Prothrombin = Prothrombin (Homo sapiens, UniProt P00734); assay: Thrombin 1536 HTS Dose Response Confirmation. [Related pubchem assays: 1046 (Thrombin 1536 HTS; hits were confirmed in this assay)]; type: functional
Genome polyprotein = Genome polyprotein (dengue virus type 2, UniProt P29990); assay: flavivirus cap methylation enzyme inhibition – biochemical, confirmation dose response, primary screen (AID 588689); type: functional
X-box-binding protein 1 = X-box-binding protein 1 (Homo sapiens, UniProt P17861); type: functional, Cricetulus griseus;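 also: confirmatory dose-response counter-screen serving a CHOP assay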
Fatty acid synthase [2] = molecular target: T2, Fatty acid synthase (Homo sapiens, UniProt P49327); assay: inhibition of human FAS-TE enzyme activity – biochemical, kinetic fluorescence intensity, dose response (AID 624326); type: functional;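 also: rate of fluorescence rise from hydrolysis of a fluorogenic O-methyl fluorescein ester substrate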
Fatty acid synthase [3] = molecular target: T2, Fatty acid synthase; assay: inhibition of human FAS-TE enzyme activity – biochemical, endpoint fluorescence intensity, uHTS hits, dose response (AID 624327); type: functional;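 also: fluorescence from hydrolysis of an O-methyl fluorescein acyl ester substrate by the enzyme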
Coagulation factor XII = molecular target: T3, Coagulation factor XII (Homo sapiens, UniProt P00748); type: functional;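 also: activated factor XIIa alpha cleaving a fluorogenic AMC peptide substrate; inhibitor potency from loss of enzyme activity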
T3 sequence (P00748 whole entry): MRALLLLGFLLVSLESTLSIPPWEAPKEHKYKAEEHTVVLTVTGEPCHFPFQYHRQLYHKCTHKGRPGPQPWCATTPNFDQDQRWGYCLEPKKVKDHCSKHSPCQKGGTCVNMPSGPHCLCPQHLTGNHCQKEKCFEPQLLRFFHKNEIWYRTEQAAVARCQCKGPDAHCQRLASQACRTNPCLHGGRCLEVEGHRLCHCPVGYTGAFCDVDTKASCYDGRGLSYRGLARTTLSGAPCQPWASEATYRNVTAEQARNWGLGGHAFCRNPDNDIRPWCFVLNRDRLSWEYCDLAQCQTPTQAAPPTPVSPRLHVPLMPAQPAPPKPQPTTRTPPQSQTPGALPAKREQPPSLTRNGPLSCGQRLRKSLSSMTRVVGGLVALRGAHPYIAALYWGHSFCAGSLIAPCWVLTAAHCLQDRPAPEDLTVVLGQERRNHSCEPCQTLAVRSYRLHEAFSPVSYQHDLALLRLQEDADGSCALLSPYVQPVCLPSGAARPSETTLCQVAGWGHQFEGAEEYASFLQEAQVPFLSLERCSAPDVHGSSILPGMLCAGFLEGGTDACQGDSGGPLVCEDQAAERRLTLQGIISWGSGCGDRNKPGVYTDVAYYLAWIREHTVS

[4] = molecular target: DNA damage-inducible transcript 3 protein (Mus musculus, UniProt P35639); type: functional, Cricetulus griseus
[5] = molecular target: T4, Protein phosphatase methylesterase 1 (Homo sapiens, UniProt Q9Y570); assay: endogenous PME-1 and serine hydrolase inhibition – cell lysate, mouse brain cytosol, FP-rhodamine, gel ABPP, selectivity assay for PME-1 inhibitor project, dose response, panel member PME-1 Assay Panel member description: Inhibition of endogenously expressed PME-1 (AID 2366)
[6] = molecular target: T4, Protein phosphatase methylesterase 1; assay: Late stage results from the probe development effort to identify inhibitors of the protein methylesterase PME-1: Gel-based Activity-Based Protein Profiling (ABPP) IC50: Purified enzyme.; type: functional
[7] = molecular target: Envelope glycoprotein gp160 (Human immunodeficiency virus 1, UniProt Q6QLK5); assay: cell-free HIV fusion peptide-binding blockers – biochemical, uHTS, fluorescence dequenching, […] (AID 1986)
[8] = molecular target: T5, Corticotropin-releasing factor receptor 2/Corticotropin-releasing factor-binding protein (Homo sapiens, UniProt P24387+Q13324); assay: Dose Response confirmation of uHTS hits for small molecule antagonists of the CRF-binding protein and CRF-R2 receptor complex.; type: functional; conditions: read-out: IC50_Mean
T5 sequence (Q13324 whole entry): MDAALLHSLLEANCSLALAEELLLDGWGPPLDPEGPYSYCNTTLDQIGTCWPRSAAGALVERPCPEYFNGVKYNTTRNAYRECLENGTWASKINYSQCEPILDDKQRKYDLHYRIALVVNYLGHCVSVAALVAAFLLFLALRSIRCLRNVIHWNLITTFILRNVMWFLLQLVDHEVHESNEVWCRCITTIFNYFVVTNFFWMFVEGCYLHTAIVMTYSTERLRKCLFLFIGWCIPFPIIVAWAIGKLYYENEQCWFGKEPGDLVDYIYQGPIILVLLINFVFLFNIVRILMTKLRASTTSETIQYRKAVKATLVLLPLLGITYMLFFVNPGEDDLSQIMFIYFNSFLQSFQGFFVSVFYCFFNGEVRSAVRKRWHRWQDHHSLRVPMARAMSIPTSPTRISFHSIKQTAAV
T5 sequence (P24387 whole entry): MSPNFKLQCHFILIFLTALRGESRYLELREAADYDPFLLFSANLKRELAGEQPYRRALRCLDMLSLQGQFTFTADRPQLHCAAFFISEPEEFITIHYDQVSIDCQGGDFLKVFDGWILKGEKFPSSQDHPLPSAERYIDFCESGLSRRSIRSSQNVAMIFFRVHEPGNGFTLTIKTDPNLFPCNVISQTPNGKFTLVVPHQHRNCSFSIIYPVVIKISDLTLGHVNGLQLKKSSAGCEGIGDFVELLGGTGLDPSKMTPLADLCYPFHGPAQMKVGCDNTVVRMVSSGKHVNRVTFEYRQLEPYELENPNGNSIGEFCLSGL

[9] = molecular target: T6, Carboxy-terminal domain RNA polymerase II polypeptide A small phosphatase 1 (Homo sapiens, UniProt Q9GZU7); assay: CTDSP1 inhibitors, concentration-response, biochemical, absorbance readout, ultra-high-throughput screen actives (AID 540297); type: functional
T6 sequence (Q9GZU7 whole entry): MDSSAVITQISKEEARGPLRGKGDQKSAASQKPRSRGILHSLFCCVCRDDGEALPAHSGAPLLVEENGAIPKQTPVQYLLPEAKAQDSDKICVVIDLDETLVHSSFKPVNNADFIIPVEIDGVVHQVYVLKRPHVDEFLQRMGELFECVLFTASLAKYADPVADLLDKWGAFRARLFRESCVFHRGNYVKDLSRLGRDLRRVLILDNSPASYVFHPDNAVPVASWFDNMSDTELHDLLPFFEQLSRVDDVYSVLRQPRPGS

[10] = blockers of CRF-binding protein–CRF-R2 complex – cell-based, uHTS hits, 384-well, dose response (AID 651639); type: functional, Homo sapiens; conditions: read-out: IC50_Mean
[11] = molecular target: T5, Corticotropin-releasing factor receptor 2/Corticotropin-releasing factor-binding protein; assay: activators of CRF receptor 2 with binding protein – uHTS hits, confirmation (AID 602473); type: functional; conditions: read-out: EC50_Mean
[12] = molecular target: Melanin-concentrating hormone receptor 1 (Homo sapiens, UniProt Q99705); assay: Late-stage fluorescence-based counterscreen for antagonists of the G-protein coupled receptor 7 (GPR7): cell-based dose response assay to identify antagonists of the melanin-concentrating hormone receptor 1 (MCHR1). [Related pubchem assays (depositor defined):AID1861, AID1880, AID1952, AID2148, AID2251, AID2257, AID485339]; type: functional;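 also: stimulated with 30 nM MCH peptide agonist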
[13] = molecular target: Neuropeptides B/W receptor type 1 (Homo sapiens, UniProt P48145); assay: human NPBW1 receptor blockade, IC50 – cell-based, fluorescence, dose response, late-stage follow-up (AID 463251); type: functional
[14] = molecular target: Eukaryotic translation initiation factor 4E (Mus musculus, UniProt P63073); assay: blockers of eIF4G binding by eIF4E – biochemical, TR-FRET, dose response (AID 855); type: functional;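 also: potency for disrupting eIF4E binding to eIF4GI seen as loss of FRET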
HeLa = assay: viability loss in HeLa cells – cell-based, 24 h, cherry-picked samples, cytotoxicity control, dose response (AID 504726); type: functional; conditions: Homo sapiens;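 also: potency for cytotoxicity as loss of luminescence signal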
[15] = molecular target: Induced myeloid leukemia cell differentiation protein Mcl-1 (Homo sapiens, UniProt Q07820); type: functional
Beta-galactosidase = Beta-galactosidase (Escherichia coli, UniProt Q8VNN2); assay: detection-enzyme interference by beta-gal modulators – biochemical, E. coli enzyme, set 3, artefact control for CCR6 antagonist project, dose response (AID 504712); type: functional
INS1 = assay: INS-1E survival protection against cytokine death – cell-based, luminescence, retest, dose response (AID 449756); type: functional; conditions: Rattus norvegicus;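 also: cell death triggered by IL-1 beta plus TNF-alpha plus IFN-gamma mixture; protective hits raise ATP signal compared with cytokine alone wells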
Hexokinase HKDC1 = molecular target: T7, Hexokinase HKDC1 (Homo sapiens, UniProt Q2TB90); assay: inhibition of HKDC1 glucose phosphorylation – biochemical, W721R variant, dose response (AID 504729); type: functional
T7 sequence (Q2TB90 whole entry): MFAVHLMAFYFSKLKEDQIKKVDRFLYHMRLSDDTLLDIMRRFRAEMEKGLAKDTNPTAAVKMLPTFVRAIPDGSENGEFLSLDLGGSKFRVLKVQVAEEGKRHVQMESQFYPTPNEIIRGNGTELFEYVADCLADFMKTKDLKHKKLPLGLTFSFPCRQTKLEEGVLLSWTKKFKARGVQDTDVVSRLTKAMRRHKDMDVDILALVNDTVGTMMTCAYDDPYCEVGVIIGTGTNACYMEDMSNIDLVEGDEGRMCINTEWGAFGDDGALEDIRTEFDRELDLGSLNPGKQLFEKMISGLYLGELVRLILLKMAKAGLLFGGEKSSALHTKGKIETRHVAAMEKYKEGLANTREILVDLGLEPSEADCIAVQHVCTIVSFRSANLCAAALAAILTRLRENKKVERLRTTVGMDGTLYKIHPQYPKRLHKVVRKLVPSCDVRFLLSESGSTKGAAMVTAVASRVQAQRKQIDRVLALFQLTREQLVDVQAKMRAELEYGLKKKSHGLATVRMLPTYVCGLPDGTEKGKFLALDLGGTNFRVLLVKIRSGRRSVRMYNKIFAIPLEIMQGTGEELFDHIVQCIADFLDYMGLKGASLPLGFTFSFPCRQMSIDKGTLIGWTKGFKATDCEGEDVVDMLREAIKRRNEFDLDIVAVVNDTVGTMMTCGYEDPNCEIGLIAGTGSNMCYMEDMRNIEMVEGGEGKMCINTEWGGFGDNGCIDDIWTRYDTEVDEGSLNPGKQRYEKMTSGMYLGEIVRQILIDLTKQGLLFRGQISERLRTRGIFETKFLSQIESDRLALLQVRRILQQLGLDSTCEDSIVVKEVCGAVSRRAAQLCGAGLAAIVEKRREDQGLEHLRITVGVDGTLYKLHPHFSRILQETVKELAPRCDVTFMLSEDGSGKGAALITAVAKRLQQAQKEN

[16] = molecular target: C-C chemokine receptor type 6 (Homo sapiens, UniProt P51684); assay: antagonism of CCR6 beta-arrestin recruitment – cell-based, luminescent beta-arrestin readout, dose response (AID 504728); type: functional
[17] = molecular target: Dual specificity protein phosphatase 3 (Homo sapiens, UniProt P51452); assay: inhibition constants for human DUSP3 – biochemical, colorimetric, SAR follow-up (AID 2004)
Chain of Dual specificity protein phosphatase 3 (P51452 whole entry): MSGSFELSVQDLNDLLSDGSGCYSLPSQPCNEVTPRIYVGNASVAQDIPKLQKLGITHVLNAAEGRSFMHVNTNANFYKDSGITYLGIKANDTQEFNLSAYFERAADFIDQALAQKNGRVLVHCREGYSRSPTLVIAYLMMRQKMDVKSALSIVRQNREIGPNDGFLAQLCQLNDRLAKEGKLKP

T4 sequence (Q9Y570 whole entry): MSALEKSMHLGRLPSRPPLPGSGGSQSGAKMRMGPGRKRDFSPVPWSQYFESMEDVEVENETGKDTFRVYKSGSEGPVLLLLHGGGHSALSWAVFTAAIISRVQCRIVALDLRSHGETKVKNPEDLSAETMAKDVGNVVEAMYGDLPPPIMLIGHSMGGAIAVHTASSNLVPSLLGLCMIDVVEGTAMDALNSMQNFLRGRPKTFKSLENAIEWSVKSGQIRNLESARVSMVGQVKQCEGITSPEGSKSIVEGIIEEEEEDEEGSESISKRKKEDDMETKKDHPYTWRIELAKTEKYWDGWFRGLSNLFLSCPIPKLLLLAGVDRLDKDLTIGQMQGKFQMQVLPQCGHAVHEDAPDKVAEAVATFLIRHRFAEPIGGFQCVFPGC
T2 sequence (P49327 whole entry): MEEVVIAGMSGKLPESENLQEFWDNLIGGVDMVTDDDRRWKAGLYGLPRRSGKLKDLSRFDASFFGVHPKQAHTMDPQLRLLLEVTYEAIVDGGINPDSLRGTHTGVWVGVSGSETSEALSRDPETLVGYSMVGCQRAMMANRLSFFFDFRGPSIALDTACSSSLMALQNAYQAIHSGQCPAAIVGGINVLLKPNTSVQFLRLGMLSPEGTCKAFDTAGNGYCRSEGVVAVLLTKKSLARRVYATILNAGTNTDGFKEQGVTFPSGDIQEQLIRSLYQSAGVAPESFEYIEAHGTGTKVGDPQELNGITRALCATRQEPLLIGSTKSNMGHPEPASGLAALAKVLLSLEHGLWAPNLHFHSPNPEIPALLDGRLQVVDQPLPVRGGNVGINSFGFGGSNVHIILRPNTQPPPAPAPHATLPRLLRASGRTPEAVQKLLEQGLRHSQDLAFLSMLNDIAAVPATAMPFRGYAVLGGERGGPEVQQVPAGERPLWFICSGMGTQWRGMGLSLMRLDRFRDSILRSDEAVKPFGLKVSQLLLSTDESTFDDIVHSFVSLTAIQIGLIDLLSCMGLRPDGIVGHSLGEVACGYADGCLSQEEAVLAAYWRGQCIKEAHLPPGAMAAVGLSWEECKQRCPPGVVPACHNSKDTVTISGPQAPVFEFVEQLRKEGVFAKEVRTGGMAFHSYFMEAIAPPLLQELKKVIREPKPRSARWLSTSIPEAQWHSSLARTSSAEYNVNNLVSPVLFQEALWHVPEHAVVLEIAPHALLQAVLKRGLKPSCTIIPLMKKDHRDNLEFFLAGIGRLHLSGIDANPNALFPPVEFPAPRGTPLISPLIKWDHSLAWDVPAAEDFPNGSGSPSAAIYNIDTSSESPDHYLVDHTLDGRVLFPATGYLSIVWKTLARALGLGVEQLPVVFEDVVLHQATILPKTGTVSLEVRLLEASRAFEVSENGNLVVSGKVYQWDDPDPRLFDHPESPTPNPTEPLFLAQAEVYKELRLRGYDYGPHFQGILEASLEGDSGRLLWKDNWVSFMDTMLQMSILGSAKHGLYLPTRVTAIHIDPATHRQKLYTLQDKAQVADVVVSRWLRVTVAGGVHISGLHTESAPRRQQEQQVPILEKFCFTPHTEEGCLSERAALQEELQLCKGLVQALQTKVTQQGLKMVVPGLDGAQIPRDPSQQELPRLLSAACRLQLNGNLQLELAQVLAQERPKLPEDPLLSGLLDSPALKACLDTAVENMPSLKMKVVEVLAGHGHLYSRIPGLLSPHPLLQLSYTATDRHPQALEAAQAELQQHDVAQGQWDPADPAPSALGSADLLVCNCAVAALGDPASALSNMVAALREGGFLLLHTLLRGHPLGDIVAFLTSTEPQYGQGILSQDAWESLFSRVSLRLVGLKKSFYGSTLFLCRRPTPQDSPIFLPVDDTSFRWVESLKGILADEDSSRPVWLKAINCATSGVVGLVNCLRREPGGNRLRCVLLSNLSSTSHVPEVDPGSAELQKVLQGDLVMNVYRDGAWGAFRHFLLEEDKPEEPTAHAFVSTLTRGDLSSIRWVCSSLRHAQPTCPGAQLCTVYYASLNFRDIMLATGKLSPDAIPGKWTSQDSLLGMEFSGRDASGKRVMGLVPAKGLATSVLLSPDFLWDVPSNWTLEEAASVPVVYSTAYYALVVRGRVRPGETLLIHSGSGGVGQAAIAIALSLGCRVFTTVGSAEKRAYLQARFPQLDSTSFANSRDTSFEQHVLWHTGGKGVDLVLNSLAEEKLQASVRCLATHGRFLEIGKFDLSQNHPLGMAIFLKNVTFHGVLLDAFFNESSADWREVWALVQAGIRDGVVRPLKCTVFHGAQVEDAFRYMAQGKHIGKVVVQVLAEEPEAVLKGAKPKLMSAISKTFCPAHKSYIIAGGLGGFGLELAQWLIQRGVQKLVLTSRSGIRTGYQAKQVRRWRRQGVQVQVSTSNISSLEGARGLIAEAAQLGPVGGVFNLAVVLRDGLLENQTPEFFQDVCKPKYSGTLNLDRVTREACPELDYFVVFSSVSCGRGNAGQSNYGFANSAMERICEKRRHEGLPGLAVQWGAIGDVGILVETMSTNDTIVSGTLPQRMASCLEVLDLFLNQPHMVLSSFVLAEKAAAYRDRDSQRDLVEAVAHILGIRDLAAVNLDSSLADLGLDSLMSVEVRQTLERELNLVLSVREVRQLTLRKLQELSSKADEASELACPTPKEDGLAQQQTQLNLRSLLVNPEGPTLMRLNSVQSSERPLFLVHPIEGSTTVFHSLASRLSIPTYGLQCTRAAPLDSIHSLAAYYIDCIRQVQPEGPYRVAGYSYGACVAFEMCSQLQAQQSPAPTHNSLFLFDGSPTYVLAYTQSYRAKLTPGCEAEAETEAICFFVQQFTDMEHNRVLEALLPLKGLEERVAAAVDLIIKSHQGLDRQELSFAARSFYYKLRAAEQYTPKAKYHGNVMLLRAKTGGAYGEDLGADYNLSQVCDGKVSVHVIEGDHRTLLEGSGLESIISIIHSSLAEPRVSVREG
Chain of DNA damage-inducible transcript 3 protein (P35639 whole entry): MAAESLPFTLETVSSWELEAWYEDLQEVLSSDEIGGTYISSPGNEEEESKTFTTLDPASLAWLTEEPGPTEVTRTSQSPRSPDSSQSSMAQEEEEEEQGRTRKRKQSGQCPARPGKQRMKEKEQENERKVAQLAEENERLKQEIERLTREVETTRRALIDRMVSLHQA
Chain of C-C chemokine receptor type 6 (P51684 whole entry): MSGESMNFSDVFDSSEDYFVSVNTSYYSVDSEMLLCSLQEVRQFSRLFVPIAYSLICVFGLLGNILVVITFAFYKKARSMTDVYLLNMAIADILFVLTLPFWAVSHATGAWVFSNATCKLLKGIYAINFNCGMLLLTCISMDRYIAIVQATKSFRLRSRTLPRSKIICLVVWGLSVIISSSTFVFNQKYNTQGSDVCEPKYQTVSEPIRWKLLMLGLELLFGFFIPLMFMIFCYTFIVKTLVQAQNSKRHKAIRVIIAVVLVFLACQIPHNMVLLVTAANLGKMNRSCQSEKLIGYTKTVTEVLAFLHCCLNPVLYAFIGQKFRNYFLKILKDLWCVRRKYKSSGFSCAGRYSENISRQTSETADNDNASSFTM
Chain of Beta-galactosidase (Q8VNN2 whole entry): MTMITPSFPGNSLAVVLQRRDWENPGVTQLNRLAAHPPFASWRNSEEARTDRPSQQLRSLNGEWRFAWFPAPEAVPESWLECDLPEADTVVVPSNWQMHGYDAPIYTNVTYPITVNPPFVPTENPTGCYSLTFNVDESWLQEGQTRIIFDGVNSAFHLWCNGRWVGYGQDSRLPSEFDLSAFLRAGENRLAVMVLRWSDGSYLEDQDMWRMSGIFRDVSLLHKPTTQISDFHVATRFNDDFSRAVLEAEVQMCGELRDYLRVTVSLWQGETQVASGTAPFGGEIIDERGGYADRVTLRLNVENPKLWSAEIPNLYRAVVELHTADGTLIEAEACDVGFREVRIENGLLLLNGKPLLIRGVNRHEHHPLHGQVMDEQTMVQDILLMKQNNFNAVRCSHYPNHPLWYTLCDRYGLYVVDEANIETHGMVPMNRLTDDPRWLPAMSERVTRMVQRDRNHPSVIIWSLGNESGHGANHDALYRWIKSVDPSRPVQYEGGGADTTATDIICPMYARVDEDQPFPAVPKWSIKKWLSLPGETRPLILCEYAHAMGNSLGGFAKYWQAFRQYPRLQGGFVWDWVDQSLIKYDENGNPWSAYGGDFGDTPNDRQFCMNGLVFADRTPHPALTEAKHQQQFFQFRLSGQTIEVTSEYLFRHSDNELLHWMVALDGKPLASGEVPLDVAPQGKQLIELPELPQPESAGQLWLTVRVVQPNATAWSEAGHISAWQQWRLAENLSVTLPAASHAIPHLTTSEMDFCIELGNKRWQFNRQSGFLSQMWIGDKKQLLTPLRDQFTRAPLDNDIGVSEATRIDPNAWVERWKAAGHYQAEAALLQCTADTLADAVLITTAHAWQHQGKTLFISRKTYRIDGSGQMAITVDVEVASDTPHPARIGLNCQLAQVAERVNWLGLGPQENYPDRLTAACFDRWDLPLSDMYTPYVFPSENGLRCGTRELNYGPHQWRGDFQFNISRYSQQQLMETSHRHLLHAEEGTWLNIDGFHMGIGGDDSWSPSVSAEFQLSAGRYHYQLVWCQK
Chain of Neuropeptides B/W receptor type 1 (P48145 whole entry): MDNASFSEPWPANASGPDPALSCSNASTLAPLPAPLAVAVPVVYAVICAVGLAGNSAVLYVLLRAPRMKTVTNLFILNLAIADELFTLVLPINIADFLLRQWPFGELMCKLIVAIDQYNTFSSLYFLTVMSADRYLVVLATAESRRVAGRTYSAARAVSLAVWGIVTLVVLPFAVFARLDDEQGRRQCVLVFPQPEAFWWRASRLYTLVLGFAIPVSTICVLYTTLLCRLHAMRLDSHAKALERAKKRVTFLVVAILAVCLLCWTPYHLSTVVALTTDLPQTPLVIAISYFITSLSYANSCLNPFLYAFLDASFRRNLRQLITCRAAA

## CC(OC(=O)c1cccc(NS(C)(=O)=O)c1)C(=O)Nc1ccc(N2CCOCC2)cc1 (stereo unspecified)
[1]
  AC50: 1.56 µM (active)

## Cc1ccc(C)c(S(=O)(=O)ON2C(=O)c3ccccc3C2=O)c1
Prothrombin
  IC50: 1.57 µM (active)
Genome polyprotein
  IC50: > 100 µM (active)
X-box-binding protein 1
  Absolute IC50 (XBP1): 10 µM
Fatty acid synthase [2]
  IC50: 3.7 µM (active)
Fatty acid synthase [3]
  IC50: 1.72 µM (active)
Coagulation factor XII
  IC50: 2.59 µM (active)
[4]
  Absolute IC50 (CHOP): 10 µM

## CS(=O)(=O)C(C#N)Cc1cccn1S(=O)(=O)c1ccccc1 (stereo unspecified)
[5]
  IC50: > 20 µM (inactive)
[6]
  IC50: > 20 µM (not active)

## COc1cc(/C=C2\C(=N)N3N=C(S(C)(=O)=O)SC3=NC2=O)ccc1OCCOc1ccc(C)cc1
[7]
  IC50: > 99 µM (inactive)
[8]
  IC50: 1.84 µM (active)
[9]
  IC50: 3.15 µM (active)
[10]
  IC50: 4.48 µM (active)
[11]
  EC50: > 53 µM (inactive)

## CCOC(=O)c1cccc(-n2ncc(Cl)c(Oc3ccc(OC)cc3)c2=O)c1
[12]
  IC50: 3.7 µM (active)
[13]
  IC50: 1.1 µM (active)

## Cc1ccc(S(=O)(=O)/N=C2/C=C(Sc3nc[nH]n3)C(=O)c3ccccc32)cc1
[14]
  IC50: > 64 µM (inactive)
HeLa
  AC50: 23.1 µM (active)
[15]
  IC50: 19.7 µM (active)
Beta-galactosidase
  IC50: > 66.6 µM (inactive)
INS1
  AC50: 6.84 µM (active)
Hexokinase HKDC1
  IC50: 1.8 µM (active)
[4]
  Absolute IC50 (CHOP): 10 µM
[16]
  IC50: 3.12 µM (active)

## S=C(NCCN1CCOCC1)Nc1ccccc1
[17]
  Ki: 64.3 µM (inactive)

Source: ChEMBL document CHEMBL1201862, “PubChem BioAssay data set” (2004)
